BigSolDB 2.1

CC(=O)Nc1cccc(N)c1
solubility (mole fraction)
Conditions	278.15 K	283.15 K	288.15 K	293.15 K	298.15 K	303.15 K	308.15 K	313.15 K	318.15 K	323.15 K
in DMF	0.029	0.043	0.061	0.088	0.124	0.166	0.22	0.285	0.358	0.44
in THF	0.108	0.146	0.194	0.256	0.328	0.404	0.487	0.568	0.653	0.729
in acetone	0.05	0.063	0.081	0.101	0.125	0.153	0.186	0.225	0.27	0.319
in acetonitrile	0.0283	0.0322	0.0382	0.0453	0.0535	0.0644	0.0752	0.0908	0.108	0.128
in ethyl acetate	0.033	0.038	0.043	0.049	0.055	0.063	0.074	0.085	0.099	0.114
in isopropanol	0.021	0.031	0.048	0.064	0.084	0.108	0.138	0.174	0.218	0.266
in methanol	0.049	0.074	0.105	0.148	0.207	0.274	0.351	0.44	0.53	0.613
in water	0.025	0.039	0.06	0.091	0.133	0.19	0.262	0.347	0.439	0.541
